Measurements published in patent US7041465B1 (priority 1999, dated 2006).
Like-named read-outs stand apart in the source and are kept apart here.

Tests used:
[1] = target: FimH binding to FimC (Escherichia coli, UniProt P08191); conditions: FimC coated at 0.1 nmol/well, FimH 5 pmol/well; for Inhibition of FimH binding to FimC immobilized on microtiter wells: peptide at 2 nmol/well (tested concentration), FIG. 14; for FimH binding to immobilized FimC in the presence of increasing concentrations of peptide: FIG. 13
Experimental: (§1) The peptides were diluted in phosphate buffered saline (PBS) (120 mM NaCl, 2.7 mM KCl, 10 mM, […], pH 7.4) to 2 nmol/50 μl. FimC protein was diluted to 0.1 nmol/50 μl and coated overnight onto microtiter wells with 50 μl/well at 4° C. The ELISA assay was carried out as described in Kuehn et al., 1993 and Hung et al., 1996. Briefly, the wells were washed three times with PBS and blocked with 3% Bovine Serum Albumin (BSA) in PBS for two hours at 25° C. Then the wells were washed three times with PBS. The FimC-FimH co-complex was incubated in 3 M urea to separate the two proteins. Pure FimH in 3 M urea was collected from the flow through of a Source 15S column (Pharmacia). See Barnhart et al., PNAS USA 97: 7709–7714 (2000). The wells were incubated with 50 μl of FimH in 3% BSA-PBS diluted to 5–25 pmol/well FimH for 45 minutes at 25° C. The wells were washed 3 times with PBS followed by incubation with a 1:1000 dilution of mouse anti-FimH antibodies in 3% BSA-PBS for 45 minutes at 25° C. The wells were washed 3 times with PBS followed by incubation with a 1:1000 dilution of goat antiserum to mouse IgG (Sigma) conjugated to alkaline phosphatase diluted in 3% BSA-PBS for 45 minutes at 25° C. The wells were washed 3 times with PBS and washed 3 times with developing buffer (10 mM diethanolamine, 0.4 mM MgCl2). The ELISA was developed by adding 50 μl of substrate (50 μl of filtered 1 mg/ml p-nitrophenyl phosphate; Sigma) in developing buffer. The reaction was incubated for 1 hour at 25° C. in the dark and the absorbance at 405 nm was read.
(§2) The competition assays were carried out similarly. FimC was coated onto microtiter wells at 0.1 nmol/well. FimH at 5 pmol/well in 3% BSA-PBS was added to the FimC coated wells in the presence or the absence of the FimC or FimG peptide at 2 nmol/well or the indicated peptide concentration. Further, increasing concentrations of FimH were incubated with constant concentrations of the FimC or FimG peptides or the FimC protein immobilized on microtiter wells. […] FimH was added to the FimC coated wells in the presence or absence of peptides to FimC or FimG.

[2] = target: FimH (Escherichia coli, UniProt P08191); conditions: peptides coated at 2 nmol/50 μl, FimC protein at 0.1 nmol/50 μl; increasing concentrations of FimH (5–25 pmol/well); FIG. 12
Experimental: as §1, §2

Sequence of FimH binding to FimC (P08191 22-300): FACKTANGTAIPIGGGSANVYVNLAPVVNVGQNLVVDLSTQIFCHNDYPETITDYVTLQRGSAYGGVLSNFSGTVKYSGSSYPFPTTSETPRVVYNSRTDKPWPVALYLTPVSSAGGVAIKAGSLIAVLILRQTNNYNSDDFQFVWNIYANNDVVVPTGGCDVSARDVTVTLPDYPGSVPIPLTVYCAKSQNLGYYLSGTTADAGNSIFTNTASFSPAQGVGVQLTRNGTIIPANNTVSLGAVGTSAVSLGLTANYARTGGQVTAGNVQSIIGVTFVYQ
Sequence of FimH (P08191 22-300): as above

Sequence	Inhibition of FimH binding to FimC immobilized on microtiter wells [1]	FimH binding to the immobilized peptide or FimC protein (ELISA, anti-FimH antibodies, absorbance at 405 nm) [2]	FimH binding to immobilized FimC in the presence of increasing concentrations of peptide [1]	FimH binding to immobilized FimC in the presence of increasing concentrations of peptide ([1]; listed as FimC polypeptide)
DVTITVNGK [FimG peptide]	did not inhibit	bound well		
NTLQLAIISR [FimC peptide]	inhibited the ability of FimH to bind to FimC	bound well	further decreased the ability of FimH to bind to FimC	inhibit FimH binding to FimC
